Series [1] is described as follows: Inhibition of Mycobacterium tuberculosis shikimate dehydrogenase using shikimic acid as substrate in presence of NADP+ by spectrophotometric analysis.
The test system of series [2] is Mycobacterium tuberculosis. Put plainly: Antibacterial activity against Mycobacterium tuberculosis H37Rv ATCC 25618 after 8 to 9 days by BacT/Alert MP bottle assay. The format is functional.
The nature of series [3]: Selectivity index, ratio of IC50 for human HepG2 cells to MIC for Mycobacterium tuberculosis H37Rv ATCC 25618. The format is toxicity, cell-based. The note with it: read-out: Selectivity Index.
Series [4] in a line: Cytotoxicity against African green monkey Vero cells assessed as reduction in cell viability by Alamar blue assay. The note with it: African green monkey (Chlorocebus sabaeus). The format is toxicity, cell-based. In general terms: Resazurin is reduced to fluorescent resorufin, in cell work by metabolically active cells.
The nature of series [5]: Selectivity index, ratio of IC50 for African green monkey Vero cells to MIC for Mycobacterium tuberculosis H37Rv ATCC 25618. It counts as toxicity, cell-based. The note with it: read-out: Selectivity Index.
The nature of series [6]: Cytotoxicity against human HepG2 cells assessed as reduction in cell viability by Alamar blue assay. It counts as toxicity, cell-based.

Drawing on ChEMBL document CHEMBL3875182 (Bioorg Med Chem, 2017), this text covers IC50, MIC and selectivity ratio for 32 compounds.

Structures are written as SMILES. Bounds are passed on as bounds.

For `COc1ccc(C2=Nn3c(nnc3-c3ccncc3)SC2)cc1`, the IC50 in series [1] was found to be 20.99 µg/mL. Regarding `c1ccc(C2=Nn3c(nnc3-c3ccncc3)SC2)cc1`, inhibition of growth in series [2] (MIC) required 8 µg/mL. Still for that read-out and setting: the same measure for `Fc1ccc(C2=Nn3c(Cc4ccc5ccccc5c4)nnc3SC2)cc1`: over 8 µg/mL.

Compound `COc1ccc(C2=Nn3c(nnc3-c3ccc(Cl)cc3)SC2)cc1` yielded an MIC in series [2] of over 8 µg/mL. Still for that read-out and setting: the same measure for `COc1ccc(C2=Nn3c(nnc3-c3ccc(Br)cc3)SC2)cc1`: 8 µg/mL. For the compound `O=[N+]([O-])c1ccc(C2=Nn3c(nnc3-c3ccc(Br)cc3)SC2)cc1`, the figures for the IC50 in series [1], in series [4] and in series [6] were 86.39 µg/mL, 13.9 µM and 10.4 µM, respectively. The selectivity ratio was 17.3 in series [3] and 23.2 in series [5]. Further, the lowest concentration to inhibit growth in series [2] (MIC) was 0.6 µM. Consider `COc1ccc(C2=Nn3c(Cc4ccc5ccccc5c4)nnc3SC2)cc1`, for which the MIC in series [2] is over 8 µg/mL. As to `c1ccc(C2=Nn3c(nnc3-c3ccccc3)SC2)cc1`, the 50% inhibitory concentration (IC50) in series [1] was 28.38 µg/mL. In series [2], `Fc1ccc(C2=Nn3c(nnc3-c3ccc(Cl)cc3)SC2)cc1` registered an MIC of over 8 µg/mL. As for `O=[N+]([O-])c1ccc(C2=Nn3c(Cc4ccc5ccccc5c4)nnc3SC2)cc1`, the IC50 came out at 11.68 µg/mL in series [1], 69.7 µM in series [4] and 72.6 µM in series [6]. Moreover, the selectivity ratio worked out at 7.29 in series [3] and 7.01 in series [5]. Inhibition of growth in series [2] (MIC) required 9.95 µM. `O=[N+]([O-])c1ccc(C2=Nn3c(nnc3-c3ccncc3F)SC2)cc1`: the concentration for half-maximal inhibition (IC50) was determined as 73.57 µg/mL in series [1], 355 µM in series [4] and 166 µM in series [6]. Further, the selectivity ratio in series [3] stood at 59.2; in series [5] it was 127. The same compound showed an MIC in series [2] of 2.8 µM.

`O=[N+]([O-])c1ccc(C2=Nn3c(nnc3-c3ccc(Cl)cc3)SC2)cc1`: the minimum inhibitory concentration (MIC) in series [2] is 8 µg/mL. The compound `Fc1ccc(C2=Nn3c(nnc3-c3ccc(Br)cc3)SC2)cc1` displayed a minimum inhibitory concentration (MIC) in series [2] of over 8 µg/mL.

In turn, `Fc1ccc(C2=Nn3c(nnc3-c3ccncc3F)SC2)cc1` registered a minimum inhibitory concentration (MIC) in series [2] of over 8 µg/mL. On the same count and under the same terms, the same measure for `COc1ccc(-c2nnc3n2N=C(c2ccc(F)cc2)CS3)cc1`: over 8 µg/mL. Same read-out and setting: then `Fc1cnccc1-c1nnc2n1N=C(c1ccccc1)CS2`, with over 8 µg/mL; and `COc1ccc(C2=Nn3c(nnc3-c3ccccc3)SC2)cc1`, with over 8 µg/mL.

As to `c1ccc(C2=Nn3c(Cc4ccc5ccccc5c4)nnc3SC2)cc1`, the MIC in series [2] was over 8 µg/mL. As for `Fc1ccc(-c2nnc3sc(COc4ccccc4)nn23)cc1`, the half-inhibitory concentration (IC50) in series [1] came out at 23 µg/mL; in series [4], 71 µM; in series [6], 46.6 µM. Further, the selectivity ratio in series [3] worked out at 1.9; in series [5] it was 2.9. The compound further came in with a minimal inhibitory concentration (MIC) in series [2] of 24.5 µM. `Fc1ccc(C2=Nn3c(nnc3-c3ccccc3)SC2)cc1`: in series [2], the minimum inhibitory concentration (MIC) is over 8 µg/mL. Same read-out and setting: the same measure for `Clc1ccc(-c2nnc3sc(COc4ccc(Br)cc4)nn23)cc1`: 0.5 µg/mL; for `Clc1ccc(-c2nnc3n2N=C(c2ccccc2)CS3)cc1`: over 8 µg/mL. `COc1ccc(C2=Nn3c(nnc3-c3ccncc3F)SC2)cc1` returned a minimal inhibitory concentration (MIC) in series [2] of 8 µg/mL. As for `Brc1ccc(OCc2nn3c(-c4ccc(Br)cc4)nnc3s2)cc1`, in series [2], the minimal inhibitory concentration (MIC) was found to be 0.5 µg/mL.

The compound `COc1ccc(-c2nnc3n2N=C(c2ccc([N+](=O)[O-])cc2)CS3)cc1` yielded an MIC in series [2] of over 8 µg/mL. Consider `COc1ccc(-c2nnc3n2N=C(c2ccccc2)CS3)cc1`, for which the MIC in series [2] is over 8 µg/mL. Still for that read-out and setting: then `Fc1ccc(C2=Nn3c(nnc3-c3ccncc3)SC2)cc1`, with over 8 µg/mL.

As for `Brc1ccc(-c2nnc3n2N=C(c2ccccc2)CS3)cc1`, the IC50 amounted to 252.5 µg/mL in series [1], 58.5 µM in series [4] and 235 µM in series [6]. The figures for the selectivity ratio in series [3] and in series [5] were 350 and 87.3, respectively. Moreover, inhibition of growth in series [2] (MIC) required 0.67 µM.

In series [2], `O=[N+]([O-])c1ccc(C2=Nn3c(nnc3-c3ccccc3)SC2)cc1` came in with an MIC of over 8 µg/mL. On the same count and under the same terms, then `COc1ccc(C2=Nn3c(nnc3-c3ccc(OC)cc3)SC2)cc1`, with over 8 µg/mL. On the same count and under the same terms, then `NNC(=O)c1ccncc1` [ISONIAZID], with 0.12 µg/mL; and `CO[C@H]1/C=C/O[C@@]2(C)Oc3c(C)c(O)c4c(O)c(c(/C=N/N5CCN(C)CC5)c(O)c4c3C2=O)NC(=O)/C(C)=C\C=C\[C@H](C)[C@H](O)[C@@H](C)[C@@H](O)[C@@H](C)[C@H](OC(C)=O)[C@@H]1C` [RIFAMPIN], with 0.25 µg/mL.

The IC50 is the concentration that inhibits the measured activity by half. By MIC is commonly meant the least concentration at which growth counts as inhibited.
